The experiment has as its system MONO-MAC-6. The experiment in a line: Antagonistic activity against Escherichia coli LPS-induced TNFalpha production in human Mono Mac 6 cells after 5.5 hrs. It counts as functional, cell-based. To be noted: for IC50: Homo sapiens, MONO-MAC-6, 5.5 h.

SMILES strings stand for the structures. Active and inactive are the calls of the source. No cut-off for these calls is given here.

On to `CCCCCCCCCCCCC[C@@H](O)CC(=O)N[C@H]1C(=O)O[C@H](CO[C@@H]2O[C@H](CO)[C@@H](O)[C@H](OC(=O)C[C@H](O)CCCCCCCCCCCCC)[C@H]2NC(=O)C[C@@H](CCCCCCCCCCCCC)OC(=O)CCCCCCCCCCCCCCCCCCCCCCCCCC(C)O)[C@@H](O)[C@@H]1OC(=O)C[C@H](O)CCCCCCCCCCCCC` (some centres undefined), for which the Inhibition (commonly the relative decrease from the control value, in per cent) came out at 86% and the half-maximal inhibitory concentration (IC50) (as a rule, the concentration needed to halve the response being measured) stood at 9.1 µM.
As to `CCCCCCCCCCCCCC(=O)O[C@H](CCCCCCCCCCCCC)CC(=O)N[C@H]1[C@H](OC[C@H]2OC(=O)[C@H](NC(=O)C[C@H](O)CCCCCCCCCCCCC)[C@@H](OC(=O)C[C@H](O)CCCCCCCCCCCCC)[C@@H]2O)O[C@H](CO)[C@@H](O)[C@@H]1OC(=O)C[C@H](O)CCCCCCCCCCCCC`, the result was Active.
On to `CCCCCCCCCCCCCCCCCCCCCCCCCCCC(=O)O[C@H](CCCCCCCCCCCCC)CC(=O)N[C@H]1[C@H](OC[C@H]2OC(=O)[C@H](NC(=O)C[C@H](O)CCCCCCCCCCCCC)[C@@H](OC(=O)C[C@H](O)CCCCCCCCCCCCC)[C@@H]2O)O[C@H](CO)[C@@H](O)[C@@H]1OC(=O)C[C@H](O)CCCCCCCCCCCCC`, for which it took 7.5 µM to reach half-maximal inhibition (IC50).

These data come from ChEMBL document CHEMBL1149589, “The influence of the long chain fatty acid on the antagonistic activities of Rhizobium sin-1 lipid A” (Bioorg Med Chem, 2007).
